From US10071954B2, “Hydrogen peroxide-activated compounds as selective anti-cancer therapeutics” (University of Cincinnati, priority 2014, dated 2018)
Where two headings read alike, the source gives them in different places. One block for each compound: values may come before it.

What was measured:
MA9.3RAS AML cells = experiment: MTT cytotoxicity assay in MA9.3RAS AML cells; type: cell-based, human
Description: (§1) Cells were seeded at a density of 4×10^4 cells/well in a 96-well plate and incubated at 37° C. overnight. Then cells were treated for 48 hours with indicated concentrations of freshly dissolved compounds. The plates were centrifuged at 1500×g for 5 minutes at 4° C. to pellet the cells and the medium containing compounds was discarded; fresh medium containing 20 μL of MTT (5 mg/mL) was added to each well and incubated for an additional 4 h. The medium was removed. After adding 200 μL of DMSO to each well, the optical densities at 575 nm were determined. Cytotoxicity data are expressed as IC50 values obtained from the fit to a four parameter sigmoid using the graphing software KaleidaGraph (Synergy Software). All R^2 values were greater than 0.98 and standard errors of the three replicates were less than 20%.
Structural components within 1 were then probed to determine effect on potency. The goal was to obtain activity that matched the two natural products, PTL and PLG, which show efficacy in tumor xenografts in mice. As a model system cytotoxicity of synthesized agents in the MA9.3RAS AML cell line was examined. These cells are transformed CD34^+ human blood stem cells engineered to express both an MLL-AF9 fusion protein and the common oncogene NrasG12D. Culturing was accomplished as previously described by Wunderlich, et al., Leukemia 24(10):1785-88 (2010). The molecular signatures associated with these cells closely mimic those identified in primary AML patient samples and the MLL-fusion is associated with poor survival. Cytotoxicity studies were performed in triplicates using an MTT cell proliferation assay. All MTT assays were repeated twice.

[1] = system: CD34+ normal human blood stem cells vs MA9.3RAS AML cells; experiment: Selectivity factor: ratio of IC50 of normal cells over IC50 of AML cells; type: cell-based; conditions: for selectivity factor (ratio of IC50 of normal cells over IC50 of AML cells): CD34+ normal human blood stem cells / MA9.3RAS AML cells
Text: (§2) The selectivity of select compounds was examined by treatment of primary CD34^+ normal human blood stem cells. These are untransformed and are genetically similar to MA9.3RAS cells except they lack the MLL-AF9 oncogene and active Nras^G12D oncogene. It is essential that reactive agents be selective since off-target reactivity is of great concern. In anti-cancer compounds, a selectivity factor, which in this instance is the ratio between the IC50 of normal cells over the IC50 of the AML cells, of one log unit is desired. Compound 1 is marginally selective with a ratio of 2.0±0.2. […] Conversion of the aniline to an alkyl amine led to improved selectivity.

[2] = Oxidation of compound 1 to 2 in PBS, HPLC analysis; type: physicochemical
Description: To mimic cellular addition, 1 was incubated in PBS with limiting N-acetylcysteine and the products were analyzed by HPLC (FIG. 3C). The limiting N-acetylcysteine was necessary due to the formation of multiple addition products, since addition of a thiol to the aromatic ring makes further oxidation and addition easier. Compound 1 was converted to 2 in the absence of exogenous oxidant at a rate of 0.011±0.002 min^−1 (FIG. 3D, grey line), which leads to approximately 50% conversion in one hour. ROS-induced activation of 1 was then assessed. In the presence of 10 mM H2O2, a ten-fold excess, the rate of conversion was enhanced by […] to 0.6±0.1 min^−1. Once 2 was formed, N-acetylcysteine was added and NAC-2 was rapidly produced (FIG. 3C, black line) as confirmed by FTMS (FIG. 3E).

[3] = system: Kasumi1 (common AML cell line); experiment: IC50 panel, Kasumi1; type: cell-based; conditions: Homo sapiens, Kasumi 1
Text: (§3) Selectivity of compound 14 was examined by measuring IC50 against a variety of cell types, including AML cells obtained from individuals as well as common cell lines and healthy untransformed cells.

[4] = system: B_MA9 + FLT3 (Individual 2 transformed with MLL-AF9 and FLT3-ITD); experiment: IC50 panel, B_MA9 + FLT3; type: cell-based
Text: as §3

AML cells = experiment: Cellular ROS level by DCF fluorescence assay; type: cell-based
Description: Though it is widely accepted that bulk AML cells have elevated concentrations of reactive oxygen, it was desirable to ensure that the instant models had higher levels of ROS than healthy cells. CD34+ blood stem cells were harvested from three donors. Cells were counted, incubated with 2,7-dihydrodichlorofluorescein (DCF) diacetate, and their respective fluorescence compared after 30 min (FIG. 7). After deacylation, DCF is oxidized by a broad spectrum of ROS species and oxidases. Thus is a marker of general ROS and oxidation within cells. The three CD34+ selected UCB cell populations each derived from different healthy donors referred as #1 through #3 (FIG. 7) had fluorescence intensity of 0.69±0.03 (p<0.002), 0.60±0.03 (p<10^−6), 0.54±0.02 (p<10^−6) compared to 1.00±0.02 in the AML cell model.
In order for 14 to be ROS-activatable, it needs to enter a cell and react with hydrogen peroxide, thereby lowering a cell's total ROS level as measured by DCF fluorescence (FIG. 8A). It should be noted that because 14 is highly lethal, concentrations ten-fold higher than the IC50 are required to lower a cell's ROS level. […] Similar experiments lacking addition of 14 show statistically significant increases in fluorescence intensities (p<0.001 for all time points while pretreated data set was not statistically significant from each other) with the endpoint having an intensity of 5.02±0.08.

[5] = system: B_MA9 + Nras (Individual 2 transformed with MLL-AF9 and NrasG12D); experiment: IC50 panel, B_MA9 + Nras; type: cell-based
Text: as §3

[6] = system: HL60 (common AML cell line); experiment: IC50 panel, HL60; type: cell-based; conditions: Homo sapiens, HL-60
Text: as §3

[7] = system: A_MA9 (Individual 1 transformed with MLL-AF9 fusion); experiment: IC50 panel, A_MA9; type: cell-based
Text: as §3

[8] = system: A_MA9 + Nras (Individual 1 transformed with MLL-AF9 and NrasG12D); experiment: IC50 panel, A_MA9 + Nras; type: cell-based
Text: as §3

[9] = system: B_MA9 (Individual 2 transformed with MLL-AF9); experiment: IC50 panel, B_MA9; type: cell-based
Text: as §3

[10] = system: A_MA9 + FLT3 (Individual 1 transformed with MLL-AF9 and FLT3-ITD); experiment: IC50 panel, A_MA9 + FLT3; type: cell-based
Text: as §3

[11] = system: CD34+ selected human umbilical cord blood cells (UCB); experiment: MTT cytotoxicity assay in CD34+ selected umbilical cord blood cells (normal blood stem cells); type: cell-based; conditions: for IC50: CD34+ selected human umbilical cord blood cells, 48 hours treatment, MTT, read-out: IC50 against UCB
Description: as §1, §2

KEAP1 = experiment: Western blot against KEAP1 normalized to beta-actin; type: cell-based; conditions: AML cells
Description: Finally, reactivity of 14 in a cell was examined (FIG. 8B). To accomplish this, western blot against KEAP1, normalized to beta-actin was performed. KEAP1 is a signaling molecule that inhibits NRF2^25, the transcription factor that regulates anti-oxidant concentrations in cells.

[12] = Oxidation of compound 14, HPLC analysis; type: physicochemical
Description: These products were produced via both spontaneous and hydrogen-peroxide induced oxidation but not under an argon atmosphere (FIG. 4C right hand side). […] Importantly, addition of one molar equivalent hydrogen peroxide led to a near instantaneous conversion to the oxidized products. Using the lower limit of t1/2 less than 1 min leads to a large rate enhancement. Initially, the two products were isolated and a high-resolution MS was obtained on both. […] Several tautomers of 14-ox are possible (see FIG. 5A).

[13] = system: MOLM13 (common AML cell line); experiment: IC50 panel, MOLM13; type: cell-based; conditions: Homo sapiens, MOLM-13
Text: as §3

[14] = system: UT (healthy untransformed cells); experiment: IC50 panel, healthy untransformed cells; type: cell-based
Text: as §3

[15] = Homo sapiens, MA9.3RAS, MA9.3 AML cells, MTT assay (Table 3), read-out: IC50
[16] = Homo sapiens, MA9.3RAS AML cell line, MTT cell proliferation assay (Table 2 and text), read-out: IC50

Compound: O=C(Nc1cc(O)ccc1O)C(NC1CCCCC1)C1CCCCC1 (stereo not shown) [Compound 19]
IC50 (MA9.3RAS AML cells; [15]): 107 ± 1 µM

Compound: CN(CC(=O)NC1=CC(=O)C=CC1=O)c1ccccc1 [Compound 2]
IC50 (MA9.3RAS AML cells; [16]): 21 ± 4 µM

Compound: NC1=CC(=O)C=CC1=O [Compound 7]
IC50 (MA9.3RAS AML cells; [16]): 16 ± 2 µM
selectivity factor (ratio of IC50 of normal cells over IC50 of AML cells) [1]: Neither compound 6 nor compound 7 were selective

Compound: parthenolide [PTL, reference compound]
IC50 (MA9.3RAS AML cells; MA9.3RAS AML cell line, MTT cell proliferation assay (Table 2 and text), read-out: IC50): 3 ± 1 µM
selectivity factor (ratio of IC50 of normal cells over IC50 of AML cells) [1]: 2.1±0.4

Compound: O=C(COc1ccccc1)Nc1cc(O)ccc1O [Compound 10]
selectivity factor (ratio of IC50 of normal cells over IC50 of AML cells) [1]: limited selectivity

Compound: O=C(CNC1CCCCC1)Nc1cc([N+](=O)[O-])ccc1O [Compound 17]
IC50 (MA9.3RAS AML cells; [15]): 22 ± 7 µM

rate of conversion of 1 to 2 ([2]; PBS, absence of exogenous oxidant): 0.011 ± 0.002 min⁻¹
conversion of 1 to 2 in one hour ([2]; absence of exogenous oxidant): approximately 50%
rate of conversion of 1 to 2 ([2]; presence of 10 mM H2O2, ten-fold excess): 0.6 ± 0.1 min⁻¹
rate of conversion of 1 into 2 ([2]; with hydrogen peroxide (FIG. 3D legend)): 0.6 min⁻¹
Compound: CN(CC(=O)Nc1cc(O)ccc1O)c1ccccc1 [Compound 1]

Compound: COc1ccc(OC)c(NC(=O)CN(C)c2ccccc2)c1 [Compound 3]
IC50 (MA9.3RAS AML cells; [16]): > 100 µM

IC50 [3]: 19 ± 3 µM
IC50 [4]: 1.6 ± 0.1 µM
IC50 [5]: 2.5 ± 0.03 µM
IC50 [6]: 4 µM
IC50 [7]: 4 ± 0.7 µM
IC50 [8]: 2.3 ± 0.08 µM
IC50 [9]: 3.7 ± 0.1 µM
IC50 [10]: 1.8 ± 0.07 µM
activation by hydrogen peroxide [12]: more than 150 fold
time for complete conversion of 14 ([12]; hydrogen peroxide (FIG. 4C legend)): less than 0.1 hours
t1/2 of oxidation ([12]; normal atmosphere, pseudo-zero order kinetics): 2.58 ± 0.217 h
t1/2 of oxidation ([12]; one molar equivalent hydrogen peroxide): less than 1 min
fraction of 14 converted to its oxidation product ([12]; two hours under argon atmosphere): 4±3%
IC50 [13]: 6 ± 1 µM
Compound: O=C(CNC1CCCCC1)Nc1cc(O)ccc1O [Compound 14, 2-(cyclohexylamino)-N-(2,5-dihydroxyphenyl)acetamide]
cellular ROS levels (DCF fluorescence), in words (AML cells; 20 μM, AML cells): time dependent loss in cellular ROS levels
DCF fluorescence intensity at endpoint (AML cells; AML cells treated with 14, end of time course, without 14 5.02±0.08): 4.31±0.08
DCF fluorescence intensity at addition of 14 (AML cells; AML cells, start of time course): 1.06±0.13
viability of AML cells, in words (MA9.3RAS AML cells; FIG. 6B): eradicated
IC50 (MA9.3RAS AML cells; [16]): 2 µM
IC50 [11]: 20 ± 2 µM
viability of normal blood stem cells, in words ([11]; concentration that eradicated AML cells, FIG. 6B): did not affect viability
selectivity ([1]; AML cells vs normal blood stem cells): 11 fold
KEAP1 level, in words (KEAP1; 2 μM): statistically significant reduction in KEAP1
relative concentration of KEAP1 (KEAP1 to ACTB) (KEAP1; after 24 hrs): 0.65±0.09
IC50 [14]: 22 ± 2 µM

Compound: CN(CC(=O)Nc1cccc(O)c1)c1ccccc1 [Compound 5]
IC50 (MA9.3RAS AML cells; [16]): > 100 µM

Compound: CCCN(C)CC(=O)Nc1cc(O)ccc1O [Compound 12]
IC50 (MA9.3RAS AML cells; [16]): 18 ± 2 µM

Compound: CN(CC(=O)Nc1ccccc1O)c1ccccc1 [Compound 4]
IC50 (MA9.3RAS AML cells; [16]): > 100 µM

Compound: Nc1ccc(O)c(NC(=O)CNC2CCCCC2)c1 [Compound 16, N-(5-amino-2-hydroxyphenyl)-2-(cyclohexylamino)acetamide]
IC50 (MA9.3RAS AML cells; Homo sapiens, MA9.3RAS, 48 hours treatment, MTT, read-out: IC50 against MA9.3RAS AML cells): 3 ± 1 µM
IC50 (MA9.3RAS AML cells; [15]): 5 ± 2 µM
IC50 [11]: 55 ± 4 µM

Compound: CC(=O)Nc1cc(O)ccc1O [Compound 6]
IC50 (MA9.3RAS AML cells; [16]): 35 ± 5 µM
selectivity factor (ratio of IC50 of normal cells over IC50 of AML cells) [1]: Neither compound 6 nor compound 7 were selective

Compound: C[C@@H](NC1CCCCC1)C(=O)Nc1cc(O)ccc1O [Compound 18]
IC50 (MA9.3RAS AML cells; [15]): 104 ± 2 µM

Compound: O=C(CNc1ccccc1)Nc1cc(O)ccc1O [Compound 9]
IC50 (MA9.3RAS AML cells; [16]): 13 ± 2 µM

Compound: O=C(CO)Nc1cc(O)ccc1O [Compound 8]
IC50 (MA9.3RAS AML cells; [16]): 12 ± 3 µM

Compound: O=C(CSc1ccccc1)Nc1cc(O)ccc1O [Compound 11]
selectivity factor (ratio of IC50 of normal cells over IC50 of AML cells) [1]: limited selectivity

Compound: COc1cc(/C=C/C(=O)N2CCC=CC2=O)cc(OC)c1OC [PLG, piperlongumine, reference compound]
IC50 (MA9.3RAS AML cells; [16]): 2 ± 1 µM
selectivity factor (ratio of IC50 of normal cells over IC50 of AML cells) [1]: 3.7±1
